The numbers were not newly measured in PubChem BioAssay AID1259409 (Chemical Carcinogenesis Research Information System (CCRIS), 2018), which cites them from elsewhere.

The structures appear in SMILES notation. “And” between values parts separate entries of the source, which are not always exact repeats. Equal values may be shown once.

The data set has as its system rodent chemically induced tumor inhibition, incidence and multiplicity. The experiment in a line: CCRIS tumor inhibitor studies.

Take `N#CO`: the “tumour outcome (control, treated, inhibition, significance)” value is 20%, 0%, 100%, p<0.05 (Carcinogen: 1,2-DIMETHYLHYDRAZINE, 540-73-8, Dose [Inhibitor]: 0.013 MMOL/G IN DIET BEGINNING 1 WK POST LAST CARCINOGEN DOSE (STUDY DURATION: 42 WK), Route [Inhibitor]: ORAL, Species: MOUSE, Strain/Sex: CF-1/FEMALE, Target Tissue: Type of Lesion: LARGE BOWEL: ADENOCARCINOMA, Dose [Carcinogen]: 0.6 MG IN 0.2 ML EDTA SOLUTION (PH 6.5) 2X WK FOR 8 WKS., Promoter: NONE USED); 41%, 18%, 56%, not significant (Carcinogen: 1,2-DIMETHYLHYDRAZINE, 540-73-8, Dose [Inhibitor]: 0.013 MMOL/G IN DIET BEGINNING 1 WK POST LAST CARCINOGEN DOSE (STUDY DURATION: 42 WK), Route [Inhibitor]: ORAL, Species: MOUSE, Strain/Sex: CF-1/FEMALE, Target Tissue: Type of Lesion: LARGE BOWEL: ADENOMA, Dose [Carcinogen]: 0.6 MG IN 0.2 ML EDTA SOLUTION (PH 6.5) 2/WK FOR 8 WK, Promoter: NONE USED); 41%, 17%, 58%, not significant (Carcinogen: 1,2-DIMETHYLHYDRAZINE, 540-73-8, Dose [Inhibitor]: 0.026 MMOL/G IN DIET BEGINNING 1 WK POSE LAST CARCINOGEN DOSE (STUDY DURATION: 42 WK), Route [Inhibitor]: ORAL, Species: MOUSE, Strain/Sex: CF-1/FEMALE, Target Tissue: Type of Lesion: LARGE BOWEL: ADENOMA, Dose [Carcinogen]: 0.6 MG IN 0.2 ML EDTA SOLUTION (PH 6.5) 2/WK FOR 8 WK, Promoter: NONE USED); 15%, 6%, 60%, not significant and 20%, 6%, 70%, not significant and 18%, 6%, 67%, not significant (Carcinogen: 1,2-DIMETHYLHYDRAZINE, 540-73-8, Dose [Inhibitor]: 0.026 MMOL/G IN DIET BEGINNING 1 WK POST LAST CARCINOGEN DOSE (STUDY DURATION: 42 WK), Route [Inhibitor]: ORAL, Species: MOUSE, Strain/Sex: CF-1/FEMALE, Target Tissue: Type of Lesion: LARGE BOWEL: ADENOCARCINOMA, Dose [Carcinogen]: 0.6 MG IN 0.2 ML EDTA SOLUTION (PH 6.5) 2/WK FOR 8 WK, Promoter: NONE USED); 33%, 11%, 67%, not significant and 37%, 14%, 62%, p<0.05 (Carcinogen: 1,2-DIMETHYLHYDRAZINE, 540-73-8, Dose [Inhibitor]: 0.026 MMOL/G IN DIET BEGINNING 1 WK POST LAST CARCINOGEN DOSE (STUDY DURATION: 42 WK), Route [Inhibitor]: ORAL, Species: MOUSE, Strain/Sex: CF-1/FEMALE, Target Tissue: Type of Lesion: LARGE BOWEL: ADENOMA, Dose [Carcinogen]: 0.6 MG IN 0.2 ML EDTA SOLUTION (PH 6.5) 2/WK FOR 8 WK, Promoter: NONE USED); 100%, 77%, 23%, p<0.01 (Carcinogen: 7,12-DIMETHYLBENZ(A)ANTHRACENE, 57-97-6, Dose [Inhibitor]: 0.013 MMOL/G IN DIET BEGINNING 1 WK AFTER CARCINOGEN ADMINISTRATION (STUDY DURATION: 18 WK), Route [Inhibitor]: ORAL, Species: RAT, Strain/Sex: SPRAGUE-DAWLEY/FEMALE, Target Tissue: Type of Lesion: MAMMARY GLAND: TUMOR, Dose [Carcinogen]: 12 MG DMBA IN 1.0 ML OLIVE OIL ONCE, Promoter: NONE USED). For the same molecule, the “tumour outcome (control, treated, inhibition, significance)” value by setting is: (Carcinogen: 7,12-DIMETHYLBENZ(A)ANTHRACENE, 57-97-6, Dose [Inhibitor]: 0.026 MMOL/G IN DIET BEGINNING 1 WK AFTER CARCINOGEN ADMINISTRATION (STUDY DURATION: 16 WK), Route [Inhibitor]: ORAL, Species: RAT, Strain/Sex: SPRAGUE-DAWLEY/FEMALE, Target Tissue: Type of Lesion: MAMMARY GLAND: TUMOR, Dose [Carcinogen]: 12 MG DMBA IN 1.0 ML OLIVE OIL ONCE, Promoter: NONE USED) 100%, 60%, 40%, p<0.001; (Carcinogen: 7,12-DIMETHYLBENZ(A)ANTHRACENE, 57-97-6, Dose [Inhibitor]: 0.026 MMOL/G IN DIET BEGINNING 1 WK AFTER CARCINOGEN ADMINISTRATION (STUDY DURATION: 18 WK), Route [Inhibitor]: ORAL, Species: RAT, Strain/Sex: SPRAGUE-DAWLEY/FEMALE, Target Tissue: Type of Lesion: MAMMARY GLAND: TUMOR, Dose [Carcinogen]: 12 MG DMBA IN 1.0 ML OLIVE OIL ONCE, Promoter: NONE USED) 94%, 63%, 33%, p<0.05 and 100%, 63%, 37%, p<0.01.
Take `CC(C)C(NC(=O)[C@@H]1CCCN1C(=O)[C@@H](NC(=O)c1ccc(C(=O)NS(=O)(=O)c2ccc(Br)cc2)cc1)C(C)C)C(=O)C(F)(F)F` (stereo partly drawn): the “tumour outcome (control, treated, inhibition, significance)” value runs as follows: (Carcinogen: UV-B IRRADIATION, Dose [Inhibitor]: 0, 125 UG IN DMSO ADMINISTERED IMMEDIATELY PRIOR TO UV-B IRRADIATION AND 4 AND 24 HR POST IRRADIATION, CYCLE REPEATED 3/, Route [Inhibitor]: SUBCUTANEOUS, Species: MOUSE, Strain/Sex: SKH-1/FEMALE, Target Tissue: Type of Lesion: SKIN: CARCINOMA, Dose [Carcinogen]: 0.09 J/CM2 3/WK, Promoter: NONE USED) 5/5 (100%), 2/5 (40%), 60%, not calculated; (Carcinogen: UV-B IRRADIATION, Dose [Inhibitor]: 0, 125 UG IN DMSO ADMINISTERED IMMEDIATELY PRIOR TO UV-B IRRADIATION AND 4 AND 24 HR POST IRRADIATION, CYCLE REPEATED 3/, Route [Inhibitor]: SUBCUTANEOUS, Species: MOUSE, Strain/Sex: SKH-1/FEMALE, Target Tissue: Type of Lesion: SKIN: PAPILLOMA, Dose [Carcinogen]: 0.09 J/CM2 3/WK, Promoter: NONE USED) 5/5 (100%), 3/5 (60%), 40%, not calculated.
As to `C[C@H]1CC[C@@]2(C)C(=CC[C@@H]3[C@@H]2CC[C@]2(C)C(=O)CC[C@@H]32)C1`, the “tumour outcome (control, treated, inhibition, significance)” value (Carcinogen: 7,12-DIMETHYLBENZ[A]ANTHRACENE, 57-97-6, Dose [Inhibitor]: 100 UG IN 0.2 ML ACETONE 1 HR BEFORE EACH WEEKLY APPLICATION OF DMBA (STUDY DURATION: 290 D), Route [Inhibitor]: DERMAL, Species: MOUSE, Strain/Sex: CD-1/FEMALE, Target Tissue: Type of Lesion: SKIN: CARCINOMA, Dose [Carcinogen]: 200 NMOL AT 6-7 WK OF AGE THEN 100 NMOL IN 0.2 ML ACETONE 1 WK BEGINNING 2 WK LATER, Promoter: NONE USED) is recorded as 14/28 (50%), 1/28 (4%), 92%, p<0.001. Moreover, the outcome (Carcinogen: 7,12-DIMETHYLBENZ[A]ANTHRACENE, 57-97-6, Dose [Inhibitor]: 400 UG IN 0.2 ML ACETONE 1 HR BEFORE EACH WEEKLY APPLICATION OF DMBA (STUDY DURATION: 290 D), Route [Inhibitor]: DERMAL, Species: MOUSE, Strain/Sex: CD-1/FEMALE, Target Tissue: Type of Lesion: SKIN: CARCINOMA, Dose [Carcinogen]: 200 NMOL AT 6-7 WK OF AGE THEN 100 NMOL IN 0.2 ML ACETONE 1/WK BEGINNING 2 WK LATER, Promoter: NONE USED) was 14/28 (50%), 3/29 (10), 80%, p<0.001.
On to `CC(C)(O)CCC(=O)C(C)(O)C1[C@H](O)C[C@@]2(C)[C@@H]3CC=C4[C@@H](C[C@H](O)[C@@H](O)C4(C)C)[C@]3(C)C(=O)C[C@]12C` (stereo partly drawn), for which, for the setting “Carcinogen: 7,12-DIMETHYLBENZ[A]ANTHRACENE, 57-97-6, Dose [Inhibitor]: 0, 85 NMOL IN 0.1 ML ACETONE APPLIED 1 HR PRIOR TO EACH PROMOTER DOSE 2/WK FOR 20 WK (STUDY DURATION: 21 WK), Route [Inhibitor]: DERMAL, Species: MOUSE, Strain/Sex: ICR/FEMALE, Target Tissue: Type of Lesion: SKIN: PAPILLOMA, Dose [Carcinogen]: 100 UG IN 0.1 ML ACETONE ONCE, Promoter: 12-O-TETRADECANOYLPHORBOL-13-ACETATE, 16561-29-8”, the “tumour outcome (control, treated, inhibition, significance)” value is recorded as 100%, 100%, 0%, not significant.
